Measured values reported in patent US20240108753A1, “NUCLEIC ACID DELIVERY” (NUNTIUS THERAPEUTICS LIMITED, priority 2021, published 2024).
Blank lines part the entries; values can stand above or below the compound they belong to. Where a SMILES comes first, the peptide text is derived from it. Where no end group is shown, it is not given here.

Legend:
[1] = test system: clathrin mediated endocytosis, caveolae-mediated endocytosis and micropinocytosis; experiment: Endocytic experiments: transfection in the presence of uptake inhibitors; format: cell-based; details: inhibitor added to G1,2,3-RL-D/D-DNA nanoparticle transfection
Procedure: The uptake mechanism of the composition of the invention was investigated. Chlorpromazine was used to inhibit clathrin mediated endocytosis. Genistein and Rottlerin were also used; these agents have been reported to inhibit caveolae-mediated endocytosis and micropinocytosis respectively.
Cells were preincubated with each inhibitor (chlorpromazine, genstein and rottlerin) for 30 min at 37 C.
Subsequently transfection was performed for a further 4 h at 37 C as described in the transfection section, in the presence of the inhibitor.

[2] = Cell viability after transfection (crystal violet); format: cell-based, human; details: human, HeLa cells, following transfection with DNA formulations
Procedure: (§1) Cell viability. Cells were transfected as described in ‘Transfection Procedure’. Following 24 hours of transfection, the medium was removed and the cells were washed twice with PBS. Afterwards, the cells were dried for 1 hour at room temperature (to allow permeation of the nuclear stain). Crystal violet solution (50 μL of stock solution supplied by Sigma-Aldrich) was added to the cells. They were incubated for 15 min at room temperature. After washing with distilled water (5 times), the cells were dried for 30 min at room temperature. Then, MeOH (200 μL) was added and the suspension was incubated for 1 hour at room temperature. The relative amount of the crystal violet stain retained by viable cells was determined by the absorbance of the methanolic solution at 550 nm.

HeLa cells = experiment: Cell viability after transfection (crystal violet); format: cell-based, human; details: following transfection with DNA formulations
Procedure: as §1

[3] = cited from earlier work
mice tissue = experiment: In vivo luciferase DNA expression assays; details: intravenous; DOTMA/DOPE w/w=1:1 to DNA; NP 20:1; 24 h
Procedure: Mice were injected with the dendrimers, lipid and DNA formulations, and tissues were isolated and snap-frozen for luciferase expression analysis 24 h and 48 h post intravenous and intramuscular injection respectively.
The tissues were homogenised with 1× reporter lysis buffer supplemented with Protease Inhibitors. Depending on the tissues, 1.5 to 3 times of the lysis buffer was used for the tissue homogenisation. Following the homogenisation, the lysates were centrifuged and the supernatants were used for assaying luciferase expression and protein content. The luciferase expression level was measured with a luminometer using a luciferase assay kit (Promega), following the manufacturer's instructions. The protein content was measured using a Biorad protein assay kit at 595 nm absorbance, following the manufacturer's instructions.
Mice were injected with the dendrimers, lipid and DNA formulation prepared for detection of luciferase expression post injection. Tissues were isolated and snap-frozen for luciferase expression analysis 24 h and 48 h post intravenous and intramuscular injection respectively.

[4] = Hydrodynamic size, polydispersity index and zeta potential of dendrimer, lipid and mRNA complexes; format: physicochemical; details: DOTMA/DOPE w/w 10:1 to mRNA; for Hydrodynamic size: dendrimer, lipid and mRNA complexes
Procedure: The hydrodynamic size, polydispersity index and Zeta potential was determined for a set of the dendrimers disclosed in Tables 1 and 2.

C2C12 cells = experiment: In vitro DNA (luciferase reporter) delivery; format: cell-based; details: N:P=8:1, DOTMA/DOPE w/w=1:1 to DNA
Description: FIG. 25. In vitro DNA delivery to HeLa and C2C12 cells. HeLa cells were transfected with either DNA alone, G1,2,3-RL (N:P=5:1) and DOTMA/DOPE (at a w/w=1:1 to DNA) with DNA and G1,2,3-RL (N:P=5:1) and DOPG/DOPE (at a w/w=1:1 to DNA) with DNA (top panel). C2C12 cells (a muscle-derived cell line) were transfected with either DNA alone, polyethylenimine with DNA, G1,2-RL, 3-LR (N:P=8:1) and DOTMA/DOPE (at a w/w=1:1 to DNA) with DNA and NTX2 (N:P=8:1) and DOTMA/DOPE (at a w/w=1:1 to DNA) with DNA (bottom panel). The DNA used in both experiments encodes a luciferase reporter gene. NTX2 is a G1,2-RL, 3-LR dendrimer conjugated to a muscle targeting peptide ASSLINA ((LR)8(KRL)4(KRL)2KGSCGAASSLNIA(Acp)-NH2).
NTX2 is a G1,2-RL, 3-LR dendrimer conjugated to a muscle targeting peptide ASSLINA ((LR)8(KRL)4(KRL)2KGSCGAASSLNIA(Acp)-NH2).

Compound: CN(C)CCCN1c2ccccc2Sc2ccc(Cl)cc21 [Chlorpromazine]
- inhibition of transfection [1]: 80%

Compound: CC(C)C[C@H](NC(=O)[C@H](CCCCN)NC(=O)[C@H](CCCCNC(=O)[C@H](CC(C)C)NC(=O)[C@H](CCCCN)NC(=O)[C@H](CCCCNC(=O)[C@H](CC(C)C)NC(=O)[C@@H](N)CCCCN)NC(=O)[C@H](CC(C)C)NC(=O)[C@@H](N)CCCCN)NC(=O)[C@H](CC(C)C)NC(=O)[C@H](CCCCN)NC(=O)[C@H](CCCCNC(=O)[C@H](CC(C)C)NC(=O)[C@@H](N)CCCCN)NC(=O)[C@H](CC(C)C)NC(=O)[C@@H](N)CCCCN)C(=O)NCCCC[C@H](NC(=O)[C@H](CC(C)C)NC(=O)[C@H](CCCCN)NC(=O)[C@H](CCCCNC(=O)[C@H](CC(C)C)NC(=O)[C@H](CCCCN)NC(=O)[C@H](CCCCNC(=O)[C@H](CC(C)C)NC(=O)[C@@H](N)CCCCN)NC(=O)[C@H](CC(C)C)NC(=O)[C@@H](N)CCCCN)NC(=O)[C@H](CC(C)C)NC(=O)[C@H](CCCCN)NC(=O)[C@H](CCCCNC(=O)[C@H](CC(C)C)NC(=O)[C@@H](N)CCCCN)NC(=O)[C@H](CC(C)C)NC(=O)[C@@H](N)CCCCN)C(=O)NCC(=O)N[C@@H](CO)C(=O)N[C@@H](CS)C(N)=O [G1,2,3-KL, (KL)8(KKL)4(KKL)2KGSC-NH2] (HELM PEPTIDE1{K.L.K.K.L.K.K.L.K.G.S.C.[am]}|PEPTIDE2{K.L}|PEPTIDE3{K.L.K.K.L.K.K.L}|PEPTIDE4{K.L}|PEPTIDE5{K.L.K.K.L}|PEPTIDE6{K.L}|PEPTIDE7{K.L.K.K.L}|PEPTIDE8{K.L}$PEPTIDE1,PEPTIDE2,3:R3-2:R2|PEPTIDE3,PEPTIDE4,3:R3-2:R2|PEPTIDE5,PEPTIDE6,3:R3-2:R2|PEPTIDE7,PEPTIDE8,3:R3-2:R2|PEPTIDE1,PEPTIDE7,6:R3-5:R2|PEPTIDE1,PEPTIDE3,9:R3-8:R2|PEPTIDE3,PEPTIDE5,6:R3-5:R2$$$V2.0)
- viability at 24 h [2]: ≥ 40%

Compound: CC(C)C[C@H](NC(=O)[C@@H](N)CCCNC(=N)N)C(=O)NCCCC[C@H](NC(=O)[C@H](CC(C)C)NC(=O)[C@@H](N)CCCNC(=N)N)C(=O)NCC(=O)N[C@@H](CO)C(=O)N[C@@H](CS)C(N)=O [G1-RL, (RL)2KGSC-NH2] (HELM PEPTIDE1{R.L.K.G.S.C.[am]}|PEPTIDE2{R.L}$PEPTIDE1,PEPTIDE2,3:R3-2:R2$$$V2.0)
- cell death (HeLa cells): 40%

Compound: O=c1c(-c2ccc(O)cc2)coc2cc(O)cc(O)c12 [Genistein]
- inhibition of transfection [1]: around 50%

Compound: CC(=O)c1c(O)c(C)c(O)c(Cc2c(O)c3c(c(C(=O)/C=C/c4ccccc4)c2O)OC(C)(C)C=C3)c1O [Rottlerin]
- inhibition of transfection [1]: around 50%

Compound: ClC(Cl)(Cl)Cl [carbon tetrachloride]
- AST and ALT threshold levels in disease model of liver damage ([3]; Bonnet et al 2008): greater than 7000 U/L

- Polydispersity Index (PDI) ([4]; N:P 0.16:1): 0.168
- Zeta Potential ([4]; N:P 0.16:1): 43 mV
- Polydispersity Index (PDI) ([4]; N:P 8:1): 0.272
- Zeta Potential ([4]; N:P 8:1): 60 mV
- Hydrodynamic size ([4]; N:P 0.16:1): 121 nm
- Hydrodynamic size ([4]; N:P 8:1): 83 nm
Compound: (LR)8(KLR)4(KLR)2KGSC-NH2 [G1,2,3-LR]
- luciferase expression in tissues, DNA delivery (mice tissue): the most effective delivery to skeletal muscle

Compound: (LR)8(KRL)4(KRL)2KGSCGAASSLNIA(Acp)-NH2 [NTX2]
- luciferase expression after DNA transfection (C2C12 cells): further increase transfection efficiency

Compound: KLKLKGSC-NH2 [G1-KL, (KL)2KGSC-NH2]
- cell death (HeLa cells): 40%

Compound: Lipopolysaccharides
- TNF-alpha level ([3]; in vivo): up to 5000 μg/mL
